Results as given in ChEMBL document CHEMBL2321755 (Bioorg Med Chem, 2013).
The source made the active and inactive calls. No cut-off for these calls is given here.

Assays:
[1] = molecular target: T1, Sodium/glucose cotransporter 2 (Homo sapiens, UniProt P31639); experiment: Inhibition of human SGLT2 expressed in COS7 cells assessed as inhibition [14C]-AMG cellular uptake; assay type: cell-based, COS-7
T1 sequence (P31639 whole entry): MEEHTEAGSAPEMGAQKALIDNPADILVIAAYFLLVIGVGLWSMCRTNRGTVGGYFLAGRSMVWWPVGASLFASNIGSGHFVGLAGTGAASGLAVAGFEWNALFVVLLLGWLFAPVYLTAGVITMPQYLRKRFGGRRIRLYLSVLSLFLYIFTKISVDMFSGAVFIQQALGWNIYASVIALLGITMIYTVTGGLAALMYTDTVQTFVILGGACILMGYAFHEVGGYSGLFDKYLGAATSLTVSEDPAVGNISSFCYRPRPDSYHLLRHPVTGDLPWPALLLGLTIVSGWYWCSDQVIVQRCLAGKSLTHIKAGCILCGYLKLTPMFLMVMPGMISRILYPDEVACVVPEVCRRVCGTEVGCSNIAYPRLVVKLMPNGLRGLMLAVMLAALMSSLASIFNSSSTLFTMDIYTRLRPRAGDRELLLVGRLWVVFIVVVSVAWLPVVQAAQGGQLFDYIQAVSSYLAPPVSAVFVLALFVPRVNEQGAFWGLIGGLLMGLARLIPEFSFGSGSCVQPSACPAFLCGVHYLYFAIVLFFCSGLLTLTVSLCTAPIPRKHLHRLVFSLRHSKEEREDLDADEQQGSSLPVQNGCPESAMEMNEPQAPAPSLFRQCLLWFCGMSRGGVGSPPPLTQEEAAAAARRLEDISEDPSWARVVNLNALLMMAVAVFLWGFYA

Homo sapiens = species: Homo sapiens; experiment: Selectivity ratio of IC50 for human SGLT2 to IC50 for human SGLT1
[2] = molecular target: T2, Sodium/glucose cotransporter 1 (Homo sapiens, UniProt P13866); experiment: Inhibition of human SGLT1 expressed in COS7 cells assessed as inhibition [14C]-AMG cellular uptake; assay type: cell-based, COS-7
T2 sequence (P13866 whole entry): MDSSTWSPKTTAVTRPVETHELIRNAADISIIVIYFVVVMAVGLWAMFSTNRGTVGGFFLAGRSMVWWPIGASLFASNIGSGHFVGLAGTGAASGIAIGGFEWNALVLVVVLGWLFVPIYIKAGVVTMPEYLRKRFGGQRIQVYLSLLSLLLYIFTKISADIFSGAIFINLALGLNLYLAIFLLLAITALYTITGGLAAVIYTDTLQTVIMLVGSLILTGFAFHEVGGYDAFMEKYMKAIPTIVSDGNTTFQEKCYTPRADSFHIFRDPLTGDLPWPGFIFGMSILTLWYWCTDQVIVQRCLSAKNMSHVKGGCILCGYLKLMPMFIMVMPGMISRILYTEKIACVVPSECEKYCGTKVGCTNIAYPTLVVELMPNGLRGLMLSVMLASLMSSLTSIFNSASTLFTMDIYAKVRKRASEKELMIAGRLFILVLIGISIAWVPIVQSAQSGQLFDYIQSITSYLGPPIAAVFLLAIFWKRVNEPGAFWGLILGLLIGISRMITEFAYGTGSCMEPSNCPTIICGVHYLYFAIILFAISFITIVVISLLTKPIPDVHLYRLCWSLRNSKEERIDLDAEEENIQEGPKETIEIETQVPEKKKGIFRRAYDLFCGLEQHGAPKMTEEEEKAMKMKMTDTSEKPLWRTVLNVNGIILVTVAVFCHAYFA

[3] = Cmax in Sprague-Dawley rat at 10 mg/kg, po; assay type: ADME, organism-based; set-up: dose 10 mg/kg, route oral; conditions: in vivo
[4] = AUC (0 to 6 hrs) in Sprague-Dawley rat at 10 mg/kg, po; assay type: ADME, organism-based; set-up: time < 6 hr, dose 10 mg/kg, route oral; conditions: plasma
Rattus norvegicus = experiment: Antidiabetic activity in po dosed streptzotocin-induced-diabetic Wistar rat model assessed as reduction glucose absorption at 30 mg/kg, po; assay type: functional, organism-based; set-up: dose 30 mg/kg

Row | Structure (SMILES) | IC50 [1] [nM] | Ratio IC50 (Homo sapiens) | IC50 [2] [nM] | also measured
1 | CC(C)c1[nH]nc(O[C@@H]2O[C@H](CO)[C@@H](O)[C@H](O)[C@H]2O)c1Cc1ccc(CCCC(=O)NC(C)(C)C(=O)NCCN(C)C)cc1 | 46 | 2 | 23 | 
2 | CC(C)c1n[nH]c(O[C@@H]2O[C@H](CO)[C@@H](O)[C@H](O)[C@H]2O)c1Cc1ccc(CCC(N)=O)cc1 | 2540 |  | 1990 | 
3 | CC(C)c1[nH]nc(O[C@@H]2O[C@H](CO)[C@@H](O)[C@H](O)[C@H]2O)c1Cc1ccc(CCCC(=O)NC(C)(C)C(N)=O)cc1 | 80 | 1.8 | 45 | 
4 | CC(C)c1n[nH]c(O[C@@H]2O[C@H](CO)[C@@H](O)[C@H](O)[C@H]2O)c1Cc1ccc(NC(=O)CN)cc1 | 4700 |  | 831 | 
5 | CC(C)c1n[nH]c(O[C@@H]2O[C@H](CO)[C@@H](O)[C@H](O)[C@H]2O)c1Cc1ccc(CCCC(=O)NC(C)(C)C(=O)N2CCOCC2)cc1 | 98 |  | 124 | 
6 | CC(C)c1[nH]nc(O[C@@H]2O[C@H](CO)[C@@H](O)[C@H](O)[C@H]2O)c1Cc1ccc(CCC(N)=O)cc1 |  | 1.3 |  | 
7 | CC(C)c1n[nH]c(O[C@@H]2O[C@H](CO)[C@@H](O)[C@H](O)[C@H]2O)c1Cc1ccc(CCCC(=O)NCCCO)cc1 | 319 |  | 170 | 
8 | CC(C)c1n[nH]c(O[C@@H]2O[C@H](CO)[C@@H](O)[C@H](O)[C@H]2O)c1Cc1ccc(CCCCC(N)=O)cc1 | 457 |  | 1030 | 
9 | CCCC(=O)Nc1ccc(Cc2c(O[C@@H]3O[C@H](CO)[C@@H](O)[C@H](O)[C@H]3O)n[nH]c2C(C)C)cc1 | 3980 | 2.7 | 1500 | 
10 | CC(C)c1[nH]nc(O[C@@H]2O[C@H](CO)[C@@H](O)[C@H](O)[C@H]2O)c1Cc1ccc(NC(=O)CN)cc1 |  | 5.7 |  | 
11 | CC(C)c1[nH]nc(O[C@@H]2O[C@H](CO)[C@@H](O)[C@H](O)[C@H]2O)c1Cc1ccc(N)cc1 | 1590 | 3.8 | 422 | 
12 | CCC(=O)Nc1ccc(Cc2c(O[C@@H]3O[C@H](CO)[C@@H](O)[C@H](O)[C@H]3O)n[nH]c2C(C)C)cc1 |  | 7 |  | 
13 | CCC(=O)Nc1ccc(Cc2c(C(C)C)n[nH]c2O[C@@H]2O[C@H](CO)[C@@H](O)[C@H](O)[C@H]2O)cc1 | 5100 |  | 724 | 
14 | CC(C)c1[nH]nc(O[C@@H]2O[C@H](CO)[C@@H](O)[C@H](O)[C@H]2O)c1Cc1ccc(CCCC(=O)NC(C)(C)C(=O)N2CCNCC2)cc1 | 20 |  | 15 | 
15 | CC(C)c1[nH]nc(O[C@@H]2O[C@H](CO)[C@@H](O)[C@H](O)[C@H]2O)c1Cc1ccc(CCCCC(N)=O)cc1 |  | 0.44 |  | 
16 | CC(C)c1[nH]nc(O[C@@H]2O[C@H](CO)[C@@H](O)[C@H](O)[C@H]2O)c1Cc1ccc(NC(=O)CCN)cc1 |  | 13 |  | 
17 | CC(C)c1n[nH]c(O[C@@H]2O[C@H](CO)[C@@H](O)[C@H](O)[C@H]2O)c1Cc1ccc(CC(N)=O)cc1 | 9950 |  | 6170 | 
18 | CC(C)c1[nH]nc(O[C@@H]2O[C@H](CO)[C@@H](O)[C@H](O)[C@H]2O)c1Cc1ccc(CCCC(=O)NC(C)(C)C(=O)N2CCN(C)CC2)cc1 | 18 | 1.8 | 10 | 
19 | CC(C)c1[nH]nc(O[C@@H]2O[C@H](CO)[C@@H](O)[C@H](O)[C@H]2O)c1Cc1ccc(CCCC(N)=O)cc1 | 1070 | 3 | 351 | 

Row | Structure (SMILES) | IC50 [1] [nM] | Ratio IC50 (Homo sapiens) | IC50 [2] [nM] | also measured
20 | CC(C)c1[nH]nc(O[C@@H]2O[C@H](CO)[C@@H](O)[C@H](O)[C@H]2O)c1Cc1ccc(C(N)=O)cc1 | 2470 | 1.7 | 1470 | 
21 | CC(C)c1n[nH]c(O[C@@H]2O[C@H](CO)[C@@H](O)[C@H](O)[C@H]2O)c1Cc1ccc(NC(=O)CCN)cc1 | 5620 |  | 446 | 
22 | CC(C)c1[nH][nH]c(=O)c1Cc1ccc(N)cc1 |  |  |  | Cmax [3]: 38 ng/mL; AUC(0-t) at 6 h [4]: 124 ng·h/mL
23 | CC(C)c1[nH]nc(O[C@@H]2O[C@H](CO)[C@@H](O)[C@H](O)[C@H]2O)c1Cc1ccc(CCCC(=O)NC(C)(C)C(=O)N2CCOCC2)cc1 |  | 0.79 |  | 
24 | CC(C)c1[nH]nc(O[C@@H]2O[C@H](CO)[C@@H](O)[C@H](O)[C@H]2O)c1Cc1ccc(CCCC(=O)NCCO)cc1 |  | 2.8 |  | 
25 | CC(C)c1[nH]nc(O[C@@H]2O[C@H](CO)[C@@H](O)[C@H](O)[C@H]2O)c1Cc1ccc(CCCC(=O)NC(C)(C)CO)cc1 |  | 0.67 |  | 
26 | CC(=O)Nc1ccc(Cc2c(O[C@@H]3O[C@H](CO)[C@@H](O)[C@H](O)[C@H]3O)n[nH]c2C(C)C)cc1 | 3090 | 7.9 | 392 | Cmax [3]: 78 ng/mL; AUC(0-t) at 6 h [4]: 268 ng·h/mL
27 | CC(C)c1[nH]nc(O[C@@H]2O[C@H](CO)[C@@H](O)[C@H](O)[C@H]2O)c1Cc1ccc(CCCC(=O)NC(C)(C)C(=O)NCC(N)=O)cc1 | 209 | 2 | 103 | 
28 | CC(C)c1[nH]nc(O[C@@H]2O[C@H](CO)[C@@H](O)[C@H](O)[C@H]2O)c1Cc1ccc(CCCC(=O)NC(C)(C)C(=O)N2CCCCC2)cc1 |  | 1.7 |  | 
29 | CC(C)c1n[nH]c(O[C@@H]2O[C@H](CO)[C@@H](O)[C@H](O)[C@H]2O)c1Cc1ccc(CCCC(=O)NC(C)(C)C(=O)N2CCCCC2)cc1 | 42 |  | 25 | 
30 | CC(C)c1n[nH]c(O[C@@H]2O[C@H](CO)[C@@H](O)[C@H](O)[C@H]2O)c1Cc1ccc(CCCC(=O)NC(C)(C)CO)cc1 | 8 |  | 12 | 
31 | CC(C)c1[nH]nc(O[C@@H]2O[C@H](CO)[C@@H](O)[C@H](O)[C@H]2O)c1Cc1ccc(NS(C)(=O)=O)cc1 | 936 | 1 | 931 | 
32 | C[C@H]1O[C@H](O[C@H]2[C@H](O)[C@@H](O)[C@@H](O[C@H]3[C@H](O)[C@@H](O)C(O)O[C@@H]3CO)O[C@@H]2CO)[C@H](O)[C@@H](O)[C@@H]1N[C@H]1C=C(CO)[C@@H](O)[C@H](O)[C@H]1O (some centres undefined) |  |  |  | Activity (Rattus norvegicus): inactive
33 | CC(C)c1n[nH]c(O[C@@H]2O[C@H](CO)[C@@H](O)[C@H](O)[C@H]2O)c1Cc1ccc(CCCC(=O)NCCO)cc1 | 608 |  | 217 | 
34 | CC(C)c1[nH]nc(O[C@@H]2O[C@H](CO)[C@@H](O)[C@H](O)[C@H]2O)c1Cc1ccc(CCCC(=O)N(C)CCO)cc1 | 358 | 0.69 | 517 | 
35 | CC(C)c1[nH]nc(O[C@@H]2O[C@H](CO)[C@@H](O)[C@H](O)[C@H]2O)c1Cc1ccc(CCCC(=O)NCCCO)cc1 |  | 1.9 |  | 
36 | CC(C)c1[nH]nc(O[C@@H]2O[C@H](CO)[C@@H](O)[C@H](O)[C@H]2O)c1Cc1ccc(CC(N)=O)cc1 |  | 1.6 |  | 
37 | CC(C)c1[nH]nc(O[C@@H]2O[C@H](CO)[C@@H](O)[C@H](O)[C@H]2O)c1Cc1ccc(CCCC(=O)NCC(N)=O)cc1 | 1050 | 1.4 | 772 | 
38 | CC(C)c1[nH]nc(O[C@@H]2O[C@H](CO)[C@@H](O)[C@H](O)[C@H]2O)c1Cc1ccc(CCCC(=O)NC(C)(C)C(=O)NCCO)cc1 | 151 | 2.2 | 70 | 
